Read-outs that look alike come from different tables or passages of the source.
Key:
[1] = molecular target: T1, human Nav1.2 (Homo sapiens, UniProt Q99250); assay: hNav1.2 functional block, whole-cell patch clamp; format: cell-based
T1 construct: host or cells: HEK
Procedure: Of the 20 analogs tested, six had [^3H]-BTX displacement characteristics much greater then that of phenyloin (Table 7), see Schemes 5, 6, 7 and 8 for the chemical synthesis and structure of the tested compounds. Compound 26, having the greatest [^3H]-BTX displacement at 86% ([…]), was further tested for VGSC functional blocking ability in HEK cells stably expressing Nav1.2 (Table 8).
In addition the functional blocking ability of 9 was tested after site two affinities was confirmed. The potential reason for this increased blocking ability stems from the dansyl addition in a hydrophobically receptive region of the binding site in the VGSC (Anderson, J. D., et al. Mol. Cancer. Ther. 2003, 2, 1149-1154; Lenkowski, P et al. Neuropharmacology, 2007, 52, 1044-1054). This enhanced potency could be due to the dansyl substituent interacting with L1465 and 11469, located in S6 of domain III in the binding site, which are believed to be the source of hydrophobic receptivity 17. The ability to inhibit VGSC currents is an important property and represents functional blocking. The ability of CDPNS to inhibit sodium channel currents was assessed at 10 and 100 μM against human Nav1.2 by patch clamp assay (FIG. 10).
Human embryonic kidney cells (HEK) cells stably expressing human Nav1.2 were a kind gift from Dr. H. A. Hartmann (University of Baltimore, Md., USA) and were grown in DMEM/F12 media (Invitrogen, Corp, CA, USA) supplemented with 10% fetal bovine serum, penicillin (100 U/ml), streptomycin (100 μg/ml) and G418 (500 μg/ml; Sigma, Mo., USA). Cells were grown in a humidified atmosphere of 5% CO2 and 95% air at 37° C.
Sodium currents were recorded using the whole-cell configuration of the patch clamp recording technique with an Axopatch 200 amplifier (Axon Instruments, Foster City, Calif.). All voltage protocols were applied using pCLAMP 9 software (Axon, USA) and a Digidata 1322A (Axon, USA). Currents were amplified and low pass filtered (2 kHz) and sampled at 33 kHz. Borosilicate glass pipettes were pulled using a Brown-Flaming puller (model P87, Sutter Instruments Co, Novato, Calif.) and heat polished to produce electrode resistances of 0.5-1.5 MΩ when filled with the following electrode solution (in mM); CsCl 130, MgCl2 1, MgATP 5, BAPTA 10, HEPES 5 (pH adjusted to 7.4 with CsOH). Cells were plated on glass coverslips and superfused with solution containing the following composition; (in mM) NaCl 130, KCl 4, CaCl2 1, MgCl2 5, HEPES 5, and glucose 5 (pH adjusted to 7.4 with NaOH).
Compound 26 was prepared as 100 mM stock solutions in dimethyl sulfoxide (DMSO) and diluted to desired concentration in perfusion solution. The maximum DMSO concentration used was 0.1% and had no effect on current amplitude. All experiments were performed at room temperature (20-22° C.). After establishing whole-cell, a minimum series resistance compensation of 75% was applied. Sodium currents were elicited by a depolarizing step from a holding potential of −100 mV to +10 mV for a duration of 25 ms at 15 s intervals. Compound 26 was applied after a 3 min control period and continued until a steady state current amplitude was observed. All data represent percentage mean block±standard error of the mean (S.E.M.).

[2] = molecular target: T2, hNav1.5 (Homo sapiens, UniProt Q14524); assay: Fluorescent (FRET) based sodium channel assay, hNav1.5; format: cell-based; details: HEK293 stably transfected with hNav1.5, 10 μM veratridine, read-out: hNav 1.5 IC50
T2 construct: expressed in transfected cells; host or cells: HEK293
Procedure: Two isoforms of the channel were examined: hNav1.5, a cardiac sodium channel associated with arrhythmias, and hNav1.7, an isoform found in the peripheral nervous system.
HEK293 cells stably transfected with either hNav1.5 or hNav1.7 were plated at approximately 11,000-20,000 cells/well in flat bottom, poly-D-lysine coated black-wall, clear-bottom, 384-well plates (Becton Dickinson, Bedford, Mass.), and incubated overnight at 37° C. in a 10% CO2 atmosphere in growth medium. Cells were washed with 0.03 mL of Dulbecco's phosphate buffered saline (D-PBS) containing calcium and magnesium. Cells were then incubated with 0.025 mL of a solution containing 10 μM CC2-DMPE and 0.02% pluronic acid in D-PBS with calcium and magnesium; supplemented with 10 mM glucose, and 10 mM Hepes-NaOH, pH 7.4. […] At the end of the incubation period, the plate was placed in a FLIPR TETRA instrument (MDS Analytical Technologies, Sunnyvale Calif.), illuminated at 390-420 nm, and fluorescence emissions were recorded at approximately 1 Hz at 460 and 580 nm. Following a 7 second baseline reading, 0.025 mL of VIPR-S containing 10 μM veratridine for Nav1.5 or 20 μM veratridine for Nav1.7 was added to each well, and the emissions of both dyes were recorded for an additional 33 seconds. […]

[3] = system: site 2 of the VGSC; assay: [3H]-BTX-B displacement assay at site 2; format: binding, rat
[4] = system: PC-3 cells; assay: PC-3 cell growth inhibition assay (WST-8); format: cell-based; details: Homo sapiens, WST-8, 48 hours
Procedure: The effect of compound 2 was studied on the proliferation of human androgen independent prostate cancer (PC-3) cells, using a cell viability assay with WST-8. […].
PC-3 cells were added to the wells of a 96 well plate at 7500 cells per well in 100 uL of RPMI medium with 10% serum and allowed to plate down overnight. The medium was then removed and replaced with serum free medium containing the appropriate concentration of drug. DMSO concentration was kept below 1%. At this time WST-8 cell counting reagent was added to the control (T=0) wells and allowed to incubate for 2 hours and the absorbance was read at 450 nm to determine the starting number of cells per well. The plates were incubated for 48 hours, the medium was removed and the wells were washed with 100 uL of PBS. The PBS was removed that the wells were filled with 110 uL of serum free RPMI media containing the WST-8 reagent. After two hours of incubation, the plates absorbance was read at 450 nm and normalized to the control value.

T1 sequence (Q99250 whole entry): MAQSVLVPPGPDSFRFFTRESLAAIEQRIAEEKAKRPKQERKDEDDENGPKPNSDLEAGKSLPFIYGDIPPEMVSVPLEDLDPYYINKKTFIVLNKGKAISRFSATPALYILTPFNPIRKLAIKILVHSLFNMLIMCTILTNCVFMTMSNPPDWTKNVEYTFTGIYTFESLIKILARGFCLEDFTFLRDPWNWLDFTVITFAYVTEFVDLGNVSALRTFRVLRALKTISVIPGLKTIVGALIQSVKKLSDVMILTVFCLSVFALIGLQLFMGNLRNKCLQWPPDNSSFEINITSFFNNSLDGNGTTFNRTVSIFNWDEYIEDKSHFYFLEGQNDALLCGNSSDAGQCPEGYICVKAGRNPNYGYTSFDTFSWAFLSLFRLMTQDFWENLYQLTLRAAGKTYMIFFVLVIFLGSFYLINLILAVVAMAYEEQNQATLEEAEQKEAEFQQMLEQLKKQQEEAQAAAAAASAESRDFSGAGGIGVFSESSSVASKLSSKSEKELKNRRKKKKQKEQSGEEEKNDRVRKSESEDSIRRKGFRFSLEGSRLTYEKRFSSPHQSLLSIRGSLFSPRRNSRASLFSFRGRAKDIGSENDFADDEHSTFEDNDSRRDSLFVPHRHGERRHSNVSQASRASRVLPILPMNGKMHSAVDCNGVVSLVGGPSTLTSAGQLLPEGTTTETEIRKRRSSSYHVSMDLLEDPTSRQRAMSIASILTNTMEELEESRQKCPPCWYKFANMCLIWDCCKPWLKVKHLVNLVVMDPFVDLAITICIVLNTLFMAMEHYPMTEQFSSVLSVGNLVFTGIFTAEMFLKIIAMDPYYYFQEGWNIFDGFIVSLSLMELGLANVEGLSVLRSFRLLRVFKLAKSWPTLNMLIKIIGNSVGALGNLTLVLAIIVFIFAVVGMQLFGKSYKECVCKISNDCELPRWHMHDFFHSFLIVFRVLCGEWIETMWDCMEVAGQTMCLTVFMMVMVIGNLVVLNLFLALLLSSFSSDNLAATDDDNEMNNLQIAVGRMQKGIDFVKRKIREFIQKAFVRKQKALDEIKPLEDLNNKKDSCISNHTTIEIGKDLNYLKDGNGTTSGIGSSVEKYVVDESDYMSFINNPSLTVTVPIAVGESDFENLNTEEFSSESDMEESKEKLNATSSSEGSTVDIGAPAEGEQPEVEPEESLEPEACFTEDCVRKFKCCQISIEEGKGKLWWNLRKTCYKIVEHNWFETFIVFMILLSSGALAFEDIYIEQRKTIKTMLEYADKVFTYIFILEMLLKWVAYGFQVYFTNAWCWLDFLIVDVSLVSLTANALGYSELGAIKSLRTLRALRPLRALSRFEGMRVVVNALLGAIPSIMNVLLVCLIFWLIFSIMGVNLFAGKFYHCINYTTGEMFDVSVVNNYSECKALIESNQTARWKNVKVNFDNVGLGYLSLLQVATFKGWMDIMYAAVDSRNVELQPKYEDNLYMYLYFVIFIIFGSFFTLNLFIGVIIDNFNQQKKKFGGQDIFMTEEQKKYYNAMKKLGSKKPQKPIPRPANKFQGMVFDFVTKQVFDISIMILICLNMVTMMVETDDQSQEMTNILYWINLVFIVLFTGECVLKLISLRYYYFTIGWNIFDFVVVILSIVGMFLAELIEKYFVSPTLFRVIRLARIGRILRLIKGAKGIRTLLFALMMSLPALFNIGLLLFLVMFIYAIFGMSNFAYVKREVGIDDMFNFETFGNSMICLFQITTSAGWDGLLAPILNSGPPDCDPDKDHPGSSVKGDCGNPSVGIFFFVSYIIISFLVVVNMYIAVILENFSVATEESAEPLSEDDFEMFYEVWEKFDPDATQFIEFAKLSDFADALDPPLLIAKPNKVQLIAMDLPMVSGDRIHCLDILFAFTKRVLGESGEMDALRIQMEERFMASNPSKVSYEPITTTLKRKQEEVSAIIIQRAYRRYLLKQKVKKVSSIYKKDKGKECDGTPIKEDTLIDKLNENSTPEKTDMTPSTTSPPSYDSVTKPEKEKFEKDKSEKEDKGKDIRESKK
T2 sequence (Q14524 whole entry): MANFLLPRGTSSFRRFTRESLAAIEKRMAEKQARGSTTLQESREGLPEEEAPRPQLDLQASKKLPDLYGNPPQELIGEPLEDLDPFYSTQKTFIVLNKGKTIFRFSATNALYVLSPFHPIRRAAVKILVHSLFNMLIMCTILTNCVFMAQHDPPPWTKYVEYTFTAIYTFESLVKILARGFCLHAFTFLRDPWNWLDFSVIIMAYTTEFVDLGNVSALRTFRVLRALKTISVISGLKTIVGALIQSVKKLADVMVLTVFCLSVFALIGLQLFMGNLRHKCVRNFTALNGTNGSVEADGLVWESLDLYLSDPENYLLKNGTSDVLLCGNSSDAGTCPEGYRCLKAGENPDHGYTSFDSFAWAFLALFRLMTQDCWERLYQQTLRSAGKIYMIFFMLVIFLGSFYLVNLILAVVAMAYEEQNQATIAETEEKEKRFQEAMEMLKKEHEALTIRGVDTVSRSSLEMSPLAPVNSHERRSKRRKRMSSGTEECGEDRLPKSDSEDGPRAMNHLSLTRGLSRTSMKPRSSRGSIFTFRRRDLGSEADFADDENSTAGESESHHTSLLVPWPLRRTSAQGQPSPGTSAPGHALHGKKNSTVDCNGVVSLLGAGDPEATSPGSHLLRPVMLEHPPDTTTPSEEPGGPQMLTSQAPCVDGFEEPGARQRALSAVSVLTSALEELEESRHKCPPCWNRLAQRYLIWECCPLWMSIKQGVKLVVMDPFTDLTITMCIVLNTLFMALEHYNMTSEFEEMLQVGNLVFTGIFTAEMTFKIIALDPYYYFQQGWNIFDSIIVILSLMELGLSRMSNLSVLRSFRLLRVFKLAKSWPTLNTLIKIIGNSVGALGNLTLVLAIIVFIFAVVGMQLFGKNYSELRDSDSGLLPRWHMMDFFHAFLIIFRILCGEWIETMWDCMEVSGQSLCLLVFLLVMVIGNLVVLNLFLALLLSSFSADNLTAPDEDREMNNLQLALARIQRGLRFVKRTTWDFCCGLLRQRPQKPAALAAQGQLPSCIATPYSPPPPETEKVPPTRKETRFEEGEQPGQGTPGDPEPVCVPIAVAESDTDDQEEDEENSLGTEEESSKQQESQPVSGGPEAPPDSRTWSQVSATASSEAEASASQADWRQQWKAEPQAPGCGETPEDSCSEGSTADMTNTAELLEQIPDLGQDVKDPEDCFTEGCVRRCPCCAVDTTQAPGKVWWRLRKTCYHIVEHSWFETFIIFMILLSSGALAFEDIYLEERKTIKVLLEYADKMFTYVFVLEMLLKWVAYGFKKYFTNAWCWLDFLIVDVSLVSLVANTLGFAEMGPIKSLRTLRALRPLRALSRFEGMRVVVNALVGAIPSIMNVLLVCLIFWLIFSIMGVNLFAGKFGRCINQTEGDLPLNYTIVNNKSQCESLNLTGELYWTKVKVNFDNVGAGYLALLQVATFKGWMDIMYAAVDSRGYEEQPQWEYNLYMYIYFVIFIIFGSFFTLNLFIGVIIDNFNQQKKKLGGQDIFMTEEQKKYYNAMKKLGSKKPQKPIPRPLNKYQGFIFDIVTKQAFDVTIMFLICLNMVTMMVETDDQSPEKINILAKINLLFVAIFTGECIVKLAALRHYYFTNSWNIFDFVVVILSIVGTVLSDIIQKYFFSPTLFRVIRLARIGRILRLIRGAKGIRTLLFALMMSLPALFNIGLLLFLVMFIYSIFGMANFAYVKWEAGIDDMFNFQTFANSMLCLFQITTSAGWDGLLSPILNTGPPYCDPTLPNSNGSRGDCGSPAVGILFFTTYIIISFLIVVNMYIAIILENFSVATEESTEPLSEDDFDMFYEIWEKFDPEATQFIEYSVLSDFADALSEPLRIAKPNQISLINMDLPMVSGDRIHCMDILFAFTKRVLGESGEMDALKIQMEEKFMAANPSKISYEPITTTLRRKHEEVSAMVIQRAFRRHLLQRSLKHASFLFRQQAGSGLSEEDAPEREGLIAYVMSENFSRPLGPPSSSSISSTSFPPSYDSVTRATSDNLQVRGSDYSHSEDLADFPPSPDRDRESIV

With `O=C1NC(=O)C(c2ccccc2)(c2ccccc2)N1` [DPH, Diphenylhydantoin, reference compound] the “% hNaV 1.2 Functional Block (10 μM)” value ([1]; Table 8) was 10.9 ± 4.2%, the “% hNaV 1.2 Functional Block (10 μM)” value ([1]; Table 9) was 10.9 ± 4.2% and the “% Nav 1.2 Functional Block (10 μm)” value ([1]; 10 μm, Table 13) was 10.9 ± 4.2%. For the same compound, the IC50 [2] was > 100 µM, the “% [3H]-BTX Inhibition (40 μM)” value ([3]; 40 μM, rat brain synaptoneurosomes, Table 9) was 30.4 ± 3.3% and the “% [3H]-BTX Displacement (40 μm)” value ([3]; 40 μm, rat brain synaptoneurosomes, Table 13) was 27.7%. The “[3H]-BTX-B Binding Data, Displacement %” value ([3]; Screen at 40 μM, 2 replicates, referenced to Aconitine) was 50%, the GI50 ([4]; read-out: GI50 in PC3 prostate cancer cells) was > 100 µM and the GI50 ([4]; read-out: PC3 GI50 (μg)) was > 100 µM.

— patent US8816095B2, “Na channels, disease, and related assays and compositions” (Georgetown University, priority 2008, dated 2014)
